Experimental data: publication PMC3082371 (Bioorganic & medicinal chemistry letters, 2008)

These compounds were tested against h5-HT2A receptor (Homo sapiens, UniProt P28223) (assay: [3H]ketanserin competitive radioligand binding assay). Conditions: h5-HT2A Ki relative to parent compound AMDA (Ki = 20 nM).
Sequence of h5-HT2A receptor (P28223 whole entry): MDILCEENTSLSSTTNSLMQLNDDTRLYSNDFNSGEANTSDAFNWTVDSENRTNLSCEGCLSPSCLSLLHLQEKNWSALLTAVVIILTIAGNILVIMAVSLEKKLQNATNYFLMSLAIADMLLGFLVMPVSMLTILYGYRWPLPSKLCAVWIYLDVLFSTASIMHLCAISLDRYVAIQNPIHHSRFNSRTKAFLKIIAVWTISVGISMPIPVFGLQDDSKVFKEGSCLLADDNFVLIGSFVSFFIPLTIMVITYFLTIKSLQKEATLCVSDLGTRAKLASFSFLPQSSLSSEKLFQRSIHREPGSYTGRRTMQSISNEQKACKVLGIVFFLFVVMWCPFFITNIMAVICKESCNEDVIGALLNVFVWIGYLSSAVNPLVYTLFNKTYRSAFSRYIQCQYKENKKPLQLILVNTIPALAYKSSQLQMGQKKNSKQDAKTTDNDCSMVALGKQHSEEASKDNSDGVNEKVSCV

SMILES	fold decrease in affinity compared to AMDA [fold]
COc1cccc2c1C(CN)c1ccccc1C2 (stereo not drawn) [Compound 2, 1-methoxy AMDA]	> 50
COc1ccc2c(c1)C(CN)c1ccccc1C2 (stereo not drawn) [Compound 3, 2-methoxy-9-aminomethyl-9,10-dihydroanthracene]	> 50
COc1cccc2c1Cc1ccccc1C2CN (stereo not drawn) [Compound 5, 4-methoxy-AMDA]	6
